Assay results from patent US20200392079A1, “Compound, Photopolymerization Initiator Containing Said Compound, and Photosensitive Resin Composition Containing Said Photopolymerization Initiator” (Nippon Kayaku Kabushiki Kaisha, priority 2018, published 2020).

Test: Solubility evaluation experiment (time required for dissolving in solvent)
Assay type: physicochemical
Procedure: After the components were mixed in a glass container in accordance with the formulation amounts (parts by mass) listed in Table 1, the solution was placed on a hot plate at 50° C. and stirred with a glass bar. The time (minute) required for dissolving was measured to evaluate the solubility.

[1] = 0.50 parts initiator in 1.00 parts (D-1) Cyclopentanon, hot plate 50° C., stirred with glass bar
[2] = 0.50 parts initiator in (D-2) 1-methoxy-2-propanol (PGME), 1.00 parts (1.43 parts for C-5), 50° C.
[3] = 0.50 parts initiator in (D-3) Polyethylene gylcol monomethylether acetate (PGMEA), 1.00-1.67 parts, 50° C.
[4] = 0.50 parts initiator in (D-4) 3-betoxymethanol, 1.11 parts (>5 parts for C-5), 50° C.

Row | Stirring time (time required for dissolving) [1] [min] | Stirring time (time required for dissolving) [2] [min] | Stirring time (time required for dissolving) [3] [min] | SMILES | Stirring time (time required for dissolving) [4] [min]
1 | 10 | 19 | 25 | C=C(C)C(=O)OCCNC(=O)OCC(O)(C(=O)c1ccc(SC)cc1)c1ccc(SC)cc1 (centres unmarked) [Initiator C-1] | 40
2 | 15 | 12 | 20 | C=CC(=O)OCCNC(=O)OCC(O)(C(=O)c1ccc(SC)cc1)c1ccc(SC)cc1 (centres unmarked) [Initiator C-2] | 40
